Consider one molecule from US20030105144A1, “Stabilized oral pharmaceutical composition” (priority 2001, published 2003).

The series in a line: Solubility of celecoxib in PEG-400/water. It counts as physicochemical. Particulars: 2:1 mixture of PEG-400 and water. The protocol:
Water-miscible, nonvolatile liquids such as polyethylene glycols have been successfully used in encapsulated solution formulations. Moreover, polyethylene glycols are also good solvents for drugs of low water solubility because they are known to improve aqueous drug solubility. For example, celecoxib, which has very low solubility in water, is highly soluble (>300 mg/g) in a 2:1 mixture of PEG-400 and water.

Structures are written as SMILES. Where only a bound is given, the exact number is not on record here.

Regarding `Cc1ccc(-c2cc(C(F)(F)F)nn2-c2ccc(S(N)(=O)=O)cc2)cc1` [celecoxib, 4-[5-(4-methylphenyl)-3-(trifluoromethyl)-1H-pyrazol-1-yl]benzenesulfonamide], the solubility is reported as over 300 mg/g.
